Results from patent US20090048185A1, “Therapeutic Drug for Suppressing Functions of NKT Cells Containing Glycolipid Derivative as Active Ingredient” (priority 2005, published 2009).

What was measured:
[1] = system: experimental autoimmune encephalomyelitis (EAE); settings: literature (Miyamoto et al., Nature 2001); cited from earlier work
[2] = system: collagen induced arthritis (CIA); settings: literature (Chiba et al., Arthritis Rheum. 2004); cited from earlier work
[3] = system: NKT cells; experiment: Effect of the compound on NKT cells (liver mononuclear cells incubated with compound); format: cell-based, C57BL/6J mice; settings: 48 hours incubation, FIG. 4
Description: Mononuclear cells were isolated from the liver of C57BL/6J mice (8 weeks old, female) and are incubated with the compound for 48 hours.

Compound | suppression of diseases in EAE [1] | suppression of diseases in CIA [2] | IFN-γ production (ELISA, supernatant) [3] | IL-4 production (ELISA, supernatant) [3] | cell proliferation (uptake of tritium thymidine) [3]
CCCCCCCCCCCCCCCCCCCCCCCC(=O)N[C@@H](COC1OC(CO)C(O)C(O)C1O)[C@H](O)[C@H](O)CCCCC (some centres unmarked) [OCH] | high effectiveness | high effectiveness | – | – | –
CCCCCCCCCCCCCCCCCCCCCCCCCC(=O)N[C@@H](COC1OC(CO)C(O)C(O)C1O)[C@H](O)[C@H](O)CCCCCCCCCCCCCC (stereo partly drawn) [α-GC, α-galactosyl ceramide] | – | – | induced | induced | induced
